Results reported in patent US20070043091A1, “Kv1.5-BLOCKER FOR THE SELECTIVE INCREASE OF ATRIAL CONTRACTILITY AND TREATMENT OF CARDIAC [sequence]” (SANOFI-AVENTIS DEUTSCHLAND GMBH, priority 2004, published 2007).
“Also recorded” adds a separate entry of the source.

Tests used:
pig left atrium [1] = experiment: Effect of Kv1.5 blockers on atrial contractility in anesthetized pigs, sinus rhythm; type: in vivo, German Landrace pigs; conditions: 1 mg/kg i.v.
Protocol: (§1) A) Test of the Effect of Kv1.5 Blockers on Atrial Contractility in Anesthetized Pigs
(§2) Material and methods: German Landrace pigs were premedicated by an intramuscular injection of 2.5-3.5 mg/kg each of xylazine, tiletamine and zolazepam in a mixing syringe. The anesthesia was induced with pentobarbital (approx. 30 mg/kg i.v.) and maintained by continuous infusion of pentobarbital (12-17 mg/kg/h).
(§3) After induction of anesthesia and after a tracheotomy, the animals were intubated and ventilated with a mixture of ambient air with 40% oxygen.
(§4) The ventilation rate and volume were governed by regularly measured blood gas and pH levels. The body temperature was continuously recorded and controlled by a heated underlay and/or red light lamp and/or warming of the breathed air to keep it constant (about 37-38° C.).
The following blood vessels of the pigs were exposed and cannulated:
External jugular vein (anesthesia infusion), carotid artery (introduction of a tip manometer catheter in the left ventricle to record the pressure there), lateral saphenous vein (dosage of test substance), epigastrica cranialis superficialis vein (fluid infusion), femoral artery (peripheral blood pressure recording) and femoral vein (introduction of MAP catheter right atrium).
The parameters responsible for the contractility are determined using two ultrasonic sensors on the left atrium (P/N JP 5-2, Triton Technology®) [references 1 and 2]. These two piezoelectric sensors are implanted in the cranio-caudal direction through punctuate incisions at the extreme edge of the atrium. The incisions were each closed with a U stitch (2-0 Vicryl®).
The two ultrasonic sensors were than connected to the evaluation unit. In addition, a pressure-measuring catheter was implanted at the ventral edge of the atrium in order to record the left atrial pressure.
The left atrial systolic shortening (LASS) was determined from the atrial diameter at the start of the active atrial pressure curve and the minimum diameter. Since the atrial contractility depends on the initial extension, the left atrial systolic shortening was divided by the value at the start of active atrial contraction (LASS index). The maximum steepness of the contraction curve was determined by importing the raw data points to Microsoft Excel for calculation of the maximum steepness of the curve. In order to exclude breathing-related variations, at least 10 cardiac cycles were analyzed. This parameter, which likewise indicates an improved contractility, is referred to as LASS steepness.
Recording of the initial values was followed by infusion for 10 minutes of the vehicle which was used later and is composed of 0.5 ml of DMSO, 2.5 ml of PEG and 2.0 ml of glucose G20. […]

[2] = system: pigs with pericardial air instillation; experiment: Left ventricular ejection (cardiac output) in a model of diastolic dysfunction, pericardial air instillation; type: in vivo; conditions: for Cardiac output, % of the initial value before example 1 / Cardiac output, % of the initial value before instillation / Cardiac output, average: 3 mg/kg i.v. over 30 min
Protocol: B) Improved Left Ventricular Ejection after Kv1.5 Blockers in a Model of Diastolic Dysfunction Methods: Pigs were anesthetized as described in A) and thoracotomized. A flow sensor was attached over the aorta to measure the cardiac output. In a stable hemodynamic situation, air (approx. 30 ml) was instilled into the pericardial using a cannula. The intention of pericardial air instillation is to impede ventricular filling, which eventually leads to a decreased cardiac output (diastolic heart failure). […] The pericardial air instillation leads to a distinct reduction in the cardiac output (table 3).

pig left atrium [3] = experiment: Effect on atrial contractility in anesthetized pigs after one hour of induced atrial fibrillation; type: in vivo, German Landrace pigs
Protocol: as §1, §2, §3
In a further series of experiments, the test substance was administered only after one hour of atrial fibrillation induced by persistent high-frequency stimulation (1200 beats/min) of the right atrium. In this case, the parameters of atrial contractility were recorded before/after the period of fibrillation and after administration of the test substance and compared with those after the vehicle control.
as §4
The following blood vessels of the pigs were exposed and cannulated: […]
The parameters responsible for the contractility are determined using two ultrasonic sensors on the left atrium (P/N JP 5-2, Triton Technology®) [references 1 and 2]. […]
The left atrial systolic shortening (LASS) was determined from the atrial diameter at the start of the active atrial pressure curve and the minimum diameter. […] The maximum steepness of the contraction curve was determined by importing the raw data points to Microsoft Excel for calculation of the maximum steepness of the curve. In order to exclude breathing-related variations, at least 10 cardiac cycles were analyzed. […]

[4] = time not given (start of infusion)

SMILES: COc1ccc(CC(=O)NCc2ccccc2-c2ccccc2C(=O)NCCc2cccnc2)cc1 [Example 1, N-(2-pyridin-3-ylethyl)-2′-{[2-(4-methoxyphenyl)acetylamino]-methyl}biphenyl-2-carboxamide]
- LACC steepness, absolute value, after administration (pig left atrium [1]): -0.152 ± 0.02 cm/s
- LACC steepness, increase in % (pig left atrium [1]; after vs before administration): +38.2%
- Cardiac output, % of the initial value before example 1 ([2]; 2′): 102%
- Cardiac output, % of the initial value before instillation ([2]; 2′): 72%
- Cardiac output, average ([2]; 2′): 1.55 L/min
- Cardiac output, % of the initial value before example 1 ([2]; 5′): 104%
- Cardiac output, % of the initial value before instillation ([2]; 5′): 73%
- Cardiac output, average ([2]; 5′): 1.58 L/min
- Cardiac output, % of the initial value before example 1 ([2]; 10′): 111%
- Cardiac output, % of the initial value before instillation ([2]; 10′): 78%
- Cardiac output, average ([2]; 10′): 1.69 L/min
- Cardiac output, % of the initial value before example 1 ([2]; 15′): 117%
- Cardiac output, % of the initial value before instillation ([2]; 15′): 82%
- Cardiac output, average ([2]; 15′): 1.78 L/min
- Cardiac output, % of the initial value before example 1 ([2]; 20′): 121%
- Cardiac output, % of the initial value before instillation ([2]; 20′): 84%
- Cardiac output, average ([2]; 20′): 1.84 L/min
- Cardiac output, % of the initial value before example 1 ([2]; 25′): 123%
- Cardiac output, % of the initial value before instillation ([2]; 25′): 86%
- Cardiac output, average ([2]; 25′): 1.88 L/min
- Cardiac output, % of the initial value before example 1 ([2]; 30′): 125%
- Cardiac output, % of the initial value before instillation ([2]; 30′): 87%
- Cardiac output, average ([2]; 30′): 1.90 L/min
- Cardiac output, % of the initial value before example 1 ([2]; 35′): 120%
- Cardiac output, % of the initial value before instillation ([2]; 35′): 85%
- Cardiac output, average ([2]; 35′): 1.83 L/min
- Cardiac output, % of the initial value before example 1 ([2]; 40′): 117%
- Cardiac output, % of the initial value before instillation ([2]; 40′): 83%
- Cardiac output, average ([2]; 40′): 1.79 L/min
- Cardiac output, % of the initial value before example 1 ([2]; 50′): 116%
- Cardiac output, % of the initial value before instillation ([2]; 50′): 82%
- Cardiac output, average ([2]; 50′): 1.76 L/min
- Cardiac output, % of the initial value before example 1 ([2]; 60′): 111%
- Cardiac output, % of the initial value before instillation ([2]; 60′): 79%
- Cardiac output, average ([2]; 60′): 1.69 L/min
- Cardiac output, % of the initial value before example 1 ([2]; 70′): 108%
- Cardiac output, % of the initial value before instillation ([2]; 70′): 78%
- Cardiac output, average ([2]; 70′): 1.65 L/min
- Cardiac output, % of the initial value before example 1 [2, 4]: 100%
- Cardiac output, % of the initial value before instillation [2, 4]: 71%
- Cardiac output, average [2, 4]: 1.53 L/min
- maximum increase in the reduced cardiac output ([2]; 3 mg/kg infused in 30 min, n=11): 25%
- LACC steepness, absolute values (pig left atrium [3]; 1 mg/kg i.v., after 1 hour atrial fibrillation): -0.197 cm/s
- LACC steepness, in % of the initial value (pig left atrium [3]; 1 mg/kg i.v., after 1 hour atrial fibrillation, initial value = before AF): 112.6%
- atrial function / contractility, in words (pig left atrium [3]; after one hour of atrial fibrillation): statistically significant improvement; also recorded: above the base line level

SMILES: CCCCS(=O)(=O)Nc1ccccc1C(=O)N[C@H](CC)c1ccc(OC)nc1 (single isomer, unassigned) [Example 5]
- LASS, increase in % (pig left atrium [1]; after vs before administration): 68%
- LASS, absolute values, after administration (pig left atrium [1]; n = 8): 8.25 ± 1.43
